What all share (type): cell-based
One assay deals with A549 cells. The assay is described as follows: Colony growth of A549 cells in soft agar. Conditions: Homo sapiens, read-out: IC50 for inhibiting colony growth of A549 cells in soft agar. As to the method:
(§1) FIG. 62 is a series of photographs showing colony formation of KEAP1 mutant cell lines and KEAP1 wild-type cell lines grown in soft agar (anchorage independent conditions) in the presence of IGF1 R inhibitors linsitinib and NVP-AEW541, and in the presence or absence of glutathione.
(§2) Expression of IGF1 R was greater in KEAP1 mutant NSCLC cells relative to KEAP1 wild-type NSCLC cell lines. To test the effect of IGF1 R inhibition on KEAP1 mutant and KEAP1 wild-type cells, cell lines were treated with linsitinib, a potent and selective IGF1 R small molecule inhibitor. […] However, this compound was very potent at inhibiting colony growth of A549 cells in soft agar, having an IC50 of about 20 nM.

The test system of assay [1] is three wild-type and three mutant KEAP1 NSCLC cell lines. The assay is described as follows: Proliferation of wild-type and mutant KEAP1 NSCLC cell lines.
Assay [2] deals with KEAP1 mutant cell lines and KEAP1 wild-type cell lines. The assay is described as follows: Growth in soft agar (anchorage independent conditions) of a panel of NSCLC cell lines. Here is the method:
as §1, §2

For a further assay, the system named is full-length NRF2. The assay is described as follows: Effect of KEAP1 on NRF2 expression in transfected 293 cells (Western blot). As to conditions: 293 cells transfected with NRF2 and KEAP1 plasmids. Here is the method:
FIG. 23 is a set of immunoblots showing the effect of NRF2 exon 2 and exon 2+3 deletions on KEAP1 interaction. 293 cells were transfected with plasmids expressing FLAG-NRF2, Δe2 FLAG-NRF2, Δe2+3 FLAG-NRF2 or HA-KEAP1. 48 hours after transfection, cells were lysed, and either lysates (top gel) or anti-FLAG immunoprecipitations were analyzed by Western blotting using the indicated antibodies.
Plasmid DNAs were transfected into cells using Lipofectamine 2000 (ThermoFisher) and OptiMEM (Gibco) as recommended by manufacturer protocol. Lysates were prepared 2-3 days post transfection. Expression plasmids used were pRK5.NRF2, pRK5.NRF2δe2, pRK5.NRF2δe2,3, pRK5.NRF2.FLAG and pRK5.KEAP1.HA.

Assay [3] relates to reactive oxygen species (ROS). The assay is described as follows: ROS levels measured by H2DCF. Conditions: exogenous glutathione, dichlorofluorescein staining. An excerpt: FIG. 49 is bar graph showing reactive oxygen species (ROS) levels under indicated conditions as measured using 2′,7′-dichlorodihydrofluorescein diacetate (H2DCF). Error bars represent standard deviation from triplicate wells.
FIG. 53 is a histogram showing increasing ROS levels in response to shNRF2 and/or erastin, as measured by H2DCF.

For assay [4], the system named is KEAP1 mutant and KEAP1 wild-type cell lines. The assay is described as follows: Colony formation in soft agar with or without NRF2 knockdown. As to the method:
Representative areas of the plate were photographed. FIG. 44 is a series of bar graphs showing the quantified colony formation for each cell type and treatment group shown in FIG. 43. Error bars represent standard deviation from biological triplicate wells. FIG. 48 is a series of photographs showing A549 cells expressing NRF2sh10 shRNA plated into regular tissue culture dishes (top) or soft agar (bottom). Cells were treated with either vehicle or 500 ng/ml doxycycline, in the presence or absence of 2 mM N-acetyl cysteine (NAC).

In a further assay the test system is KEAP1 mutant cell lines. The assay is described as follows: Viability of KEAP1 wild-type versus KEAP1 mutant cell lines. An excerpt:
FIG. 56A is a graph showing the IC50 of the glutaminase inhibitor BPTES on KEAP1 wild-type cell lines versus KEAP1 mutant cell lines.
FIG. 56B is a graph showing the viability of KEAP1 wild-type cell lines versus KEAP1 mutant cell lines in response to the glutaminase inhibitor BPTES.
FIG. 57A is a graph showing the IC50 of the […] buthionine sylphoximine (BSO) on KEAP1 wild-type cell lines versus KEAP1 mutant cell lines.
FIG. 57B is a graph showing the viability of KEAP1 wild-type cell lines versus KEAP1 mutant cell lines in response to BSO.

Residues, ends and D or L forms follow the SMILES beside them. *: point of attachment. Cbz = O=C(OCc1ccccc1)*

Turning to `C[C@]1(O)C[C@@H](c2nc(-c3ccc4ccc(-c5ccccc5)nc4c3)c3c(N)nccn32)C1` [linsitinib], in the assay on A549 cells, the IC50 is about 20 nM. Also, in assay [1], the effect on proliferation result is recorded as “little effect on proliferation”. The “selectivity of growth inhibition for KEAP1 mutant cell lines” value in assay [2] is recorded as “selective growth inhibition in soft agar of this compound in KEAP1 mutant cell lines”. As for `CC(C)C[C@@H](C=O)NC(=O)[C@H](CC(C)C)NC(=O)[C@H](CC(C)C)NC(=O)OCc1ccccc1` [MG132] (Cbz-Leu-Leu-Leu-aldehyde), in the assay on full-length NRF2, the “inhibitory effect of KEAP1 on full-length NRF2 expression” value was “mostly abolished”. For `N[C@@H](CCC(=O)N[C@@H](CS)C(=O)NCC(=O)O)C(=O)O` [reduced glutathione, glutathione], the ROS levels result in assay [3] is given as “reduce reactive oxygen (ROS) levels”. Besides, in assay [4] (all tested cell lines, 1 mM reduced glutathione), the “ability to form colonies in soft agar” value was “generally increased the ability of all tested cell lines to form colonies in soft agar”. Further, in assay [4] (soft agar, dox-induced NRF2 shRNA), the “rescue of the consequences of NRF2 knockdown” value is listed as “unable to rescue the consequences of NRF2 knockdown”. Take `CCCCS(=N)(=O)CCC(N)C(=O)O` (stereo not drawn) [BSO, buthionine sylphoximine]: the “preferential toxicity for KEAP1 mutant cell lines” value in the assay with KEAP1 mutant cell lines is “did not display preferential toxicity”.

Turning to `O=C(Cc1ccccc1)Nc1nnc(CCSCCc2nnc(NC(=O)Cc3ccccc3)s2)s1` [BPTES], the “preferential toxicity for KEAP1 mutant cell lines” value with KEAP1 mutant cell lines is recorded as “did not display preferential toxicity”.

Source of the values: US11066709B2, “Methods for diagnosing and treating cancer by means of the expression status and mutational status of NRF2 and downstream target genes of said gene” (Genentech, Inc., priority 2016, dated 2021).
